Results as given in patent US10358416B2, “Substituted pyrrolidines as G-protein coupled receptor 43 agonists” (Ogeda SA, priority 2009, dated 2019).

Test system: ob/ob mice
Assay: Oral glucose tolerance test (OGTT) in ob/ob mice
Assay type: in vivo
Details: bi-daily 50 mg/kg during 28 days, AUC from -15 to 120 min
Procedure: Ob/ob or obese mice are leptin-deficient mice that eat excessively and become profoundly obese, hyperinsulinemic and hyperglycemic. It is an animal model of type II diabetes. Such model can be used for oral glucose tolerance tests (OGTTs). A total of sixteen (16) male ob/ob mice (6 weeks of age) were obtained from Harlan. Upon arrival to the animal unit, mice were housed 4 per cage in rodent cages mounted with feeders containing regular chow. The mice were put in a 12/12h light-dark cycle (light from 0600-1800 h) with controlled temperature conditions (22-24° C.). Fed blood glucose and body-weight was measured on day −2 in the morning between 08:00 AM and 09:00 AM. Animals were randomized into 2 groups according to fed glucose levels (on day −2). […]
Day 1 is the first day of dosing. […] At −15 min, blood glucose was measured (using a glucose analyzer) and animals were dosed with compounds of the invention or vehicle. At time point 0, blood glucose was measured again and glucose was administered by oral gavage (1 g/kg glucose). The blood glucose was then measured at time points 15, 30, 45, 60 and 120 minutes. […] The percentages of AUC inhibition induced by compounds of the invention were calculated as follows: % of AUC inhibition: [1−(AUC compound/AUC vehicle)]*100.

## COc1ccccc1-c1ccc(C(=O)N2[C@@H](c3ccccc3Cl)CC[C@H]2C(=O)O)cc1 [Compound 1, (2S,5R)-5-(2-chlorophenyl)-1-(2′-methoxy-[1,1′-biphenyl]-4-carbonyl)pyrrolidine-2-carboxylic acid]
  % of AUC inhibition (blood glucose AUC, OGTT): 40%
